Measured values as given in ChEMBL document CHEMBL4425155, “Synthesis and anti-HBV activity of α-stereoisomer of aristeromycin based analogs” (Bioorg Med Chem Lett, 2016).

Assays:
Hepatitis B virus = assay: Antiviral activity against HBV infected in human HepG2.2.15.7 cells assessed as inhibition of viral DNA level after 9 days by real time PCR method; format: functional, organism-based; conditions: HepG2.2.15.7, 216 h
[1] = Cytotoxicity against human HepG2.2.15.7 cells assessed as reduction in cell viability after 9 days by tetrazolium dye based method

EC50 (Hepatitis B virus) [µM]	Compound	CC50 at 216 h [1] [µM]
> 100	Cc1nc(N)c2c(Br)nn([C@@H]3C[C@@H](CO)[C@@H](O)[C@H]3O)c2n1	> 100
6.6	Cc1ncnc2c1c(Br)cn2[C@@H]1C[C@@H](CO)[C@@H](O)[C@H]1O	> 100
0.03	Nc1ccn([C@@H]2CS[C@H](CO)O2)c(=O)n1 [LAMIVUDINE]	> 10
